Experimental data from article PMC11995724, “Antibiotic target discovery by integrated phenotypic and activity-based profiling of electrophilic fragments” (Cell chemical biology, 2025).
Where a name gives a salt, the structure may show the parent alone.

assay: in vitro; settings: human, hek293t cells

SMILES | viability at 48 h, 25 µM [%]
C=CC(=O)N1CCCC(S(C)(=O)=O)C1 (stereo not shown) [1-J18, 1-(3-methanesulfonylpiperidin-1-yl)prop-2-en-1-one] | 63.9
CC1CCCN(C(=O)C(NC(=O)CCl)c2cnn(C)c2)C1 (stereo not shown) [6-H05, 2-chloro-N-[1-(1-methyl-1H-pyrazol-4-yl)-2-(3-methylpiperidin-1-yl)-2-oxoethyl]acetamide] | 104
C=CC(=O)NCc1cnc(N2CCOCC2)s1 [1-M03, N-{[2-(morpholin-4-yl)-1,3-thiazol-5-yl]methyl}prop-2-enamide] | 86.3
CC(Cl)C(=O)NCc1ccco1 (stereo not shown) [5-B09, 2-chloro-N-[(furan-2-yl)methyl]propanamide] | 96.6
C=CC(=O)NC1CCC(OCc2cc(C)no2)CC1 (stereo not shown) [1-M08, N-{4-[(3-methyl-1,2-oxazol-5-yl)methoxy]cyclohexyl}prop-2-enamide] | 86.5
CC(Cl)C(=O)N1CCn2c(Cc3c(F)cccc3F)nnc2C1 (stereo not shown) [6-F18, 2-chloro-1-{3-[(2,6-difluorophenyl)methyl]-5H,6H,7H,8H-[1,2,4]triazolo[4,3-a]pyrazin-7-yl}propan-1-one] | 100
CCN(C(=O)C(C)Cl)c1ccccc1 (stereo not shown) [4-P16, 2-chloro-N-ethyl-N-phenylpropanamide] | 109
C=CC(=O)Nc1ccc(C(=O)N2CCC(C)(C)S(=O)(=O)CC2)cc1 [3-E04, N-[4-(7,7-dimethyl-1,1-dioxo-1lambda6,4-thiazepane-4-carbonyl)phenyl]prop-2-enamide] | 78.6
O=C(CCl)Nc1ccc2c(c1)oc1ccccc12 [6-A13, 2-chloro-N-{8-oxatricyclo[7.4.0.0,2,7]trideca-1(9),2(7),3,5,10,12-hexaen-5-yl}acetamide] | -0.0548
C=CC(=O)N1CCC(C2CCOC2)C1 (stereo not shown) [1-H06, 1-[3-(oxolan-3-yl)pyrrolidin-1-yl]prop-2-en-1-one] | 70.3
CC(Cl)C(=O)N(CCc1ccc(F)cc1F)C(C)C (stereo not shown) [6-D18, 2-chloro-N-[2-(2,4-difluorophenyl)ethyl]-N-(propan-2-yl)propanamide] | 101
C=CC(=O)N1CCn2c(nnc2C2CCCC2)C1 [3-C09, 1-{3-cyclopentyl-5H,6H,7H,8H-[1,2,4]triazolo[4,3-a]pyrazin-7-yl}prop-2-en-1-one] | 29.4
C=CC(=O)N1CCOCC2(CCOCC2)C1 [2-C10, 1-{3,8-dioxa-11-azaspiro[5.6]dodecan-11-yl}prop-2-en-1-one] | 85.4
CC(=O)Nc1ccc(C=C(C#N)C(=O)Nc2c(C)cc(C)cc2C)cc1 [8-M13, 2-cyano-3-(4-acetamidophenyl)-N-(2,4,6-trimethylphenyl)prop-2-enamide] | 87.7
CC(=O)N(Cc1ncc(C(C)C)o1)C1CCN(C(=O)C(C)Cl)C1 (stereo not shown) [6-J07, N-[1-(2-chloropropanoyl)pyrrolidin-3-yl]-N-{[5-(propan-2-yl)-1,3-oxazol-2-yl]methyl}acetamide] | 103
CCN(Cc1cccs1)C(=O)CCl [5-F07, 2-chloro-N-ethyl-N-[(thiophen-2-yl)methyl]acetamide] | 1.01
Cc1cnc(C(C)N2CCN(C(=O)C(C)Cl)CC2)s1 (stereo not shown) [7-M03, 2-chloro-1-{4-[1-(5-methyl-1,3-thiazol-2-yl)ethyl]piperazin-1-yl}propan-1-one] | 97.5
C=CC(=O)NC1CCC(S(C)(=O)=O)C1 (stereo not shown) [3-F18, N-(3-methanesulfonylcyclopentyl)prop-2-enamide] | 94.3
C=CC(=O)N(C)CC(=O)N1CCCC(CC(N)=O)CC1 (stereo not shown) [3-C20, N-{2-[4-(carbamoylmethyl)azepan-1-yl]-2-oxoethyl}-N-methylprop-2-enamide] | 68.6
N#CC(C(=O)Nc1ccccc1)=C1NCCCN1 [8-H10, 2-cyano-2-(1,3-diazinan-2-ylidene)-N-phenylacetamide] | 97.7
CN(CC1CCCCC1)C(=O)C(C)(C)NC(=O)CCl [6-A19, 2-(2-chloroacetamido)-N-(cyclohexylmethyl)-N,2-dimethylpropanamide] | 61.9
N#CC(C(=O)CCl)=C1Nc2ccccc2S1 [10-J04, 4-chloro-2-(2,3-dihydro-1,3-benzothiazol-2-ylidene)-3-oxobutanenitrile] | 0.855
CC(Cl)C(=O)Nc1nc2ccccc2s1 (stereo not shown) [5-K05, N-(1,3-benzothiazol-2-yl)-2-chloropropanamide] | 59.9
Cn1nccc1CN1C[C@@H](F)C[C@H]1CNC(=O)CCl [5-C04, 2-chloro-N-{[(2S,4S)-4-fluoro-1-[(1-methyl-1H-pyrazol-5-yl)methyl]pyrrolidin-2-yl]methyl}acetamide] | 117
CC1CCCCC1OCCNC(=O)CCl (stereo not shown) [6-O06, 2-chloro-N-{2-[(2-methylcyclohexyl)oxy]ethyl}acetamide] | 112
COc1ccc(NC(=O)C(C#N)=Cc2c(C)n[nH]c2C)cc1 [8-I04, 2-cyano-3-(3,5-dimethyl-1H-pyrazol-4-yl)-N-(4-methoxyphenyl)prop-2-enamide] | 84.7

SMILES | viability at 48 h, 25 µM [%]
N#CC(=Cc1ccc([N+](=O)[O-])cc1)C(=O)Nc1ccc(Cl)cc1 [8-O11, N-(4-chlorophenyl)-2-cyano-3-(4-nitrophenyl)prop-2-enamide] | 82.6
C=CC(=O)N1CCC(C(=O)Nc2n[nH]c3cc(C#N)c(C)cc23)CC1 [3-J18, N-(6-cyano-5-methyl-1H-indazol-3-yl)-1-(prop-2-enoyl)piperidine-4-carboxamide] | 90.3
O=C(CCl)NC(c1ccccc1)c1ccco1 (stereo not shown) [4-A08, 2-chloro-N-[(furan-2-yl)(phenyl)methyl]acetamide] | 2.75
O=C(CN1CCN(C(=O)CCl)CC1)Nc1ccc(F)cc1 [4-J20, 2-[4-(2-chloroacetyl)piperazin-1-yl]-N-(4-fluorophenyl)acetamide hydrochloride] | 1.34
C=CC(=O)N[C@H]1CCO[C@@H]1c1ccnn1C [2-K19, N-[(2S,3S)-2-(1-methyl-1H-pyrazol-5-yl)oxolan-3-yl]prop-2-enamide] | 96.4
CC(Cl)C(=O)NCCS(=O)(=O)c1cccs1 (stereo not shown) [6-N15, 2-chloro-N-[2-(thiophene-2-sulfonyl)ethyl]propanamide] | 105
C=CC(=O)N(Cc1cn(C)nc1-c1ccc(F)cc1)C1CC(C)C1 (stereo not shown) [1-P09, N-{[3-(4-fluorophenyl)-1-methyl-1H-pyrazol-4-yl]methyl}-N-(3-methylcyclobutyl)prop-2-enamide] | 64.1
N#CC(=Cc1csc(C2CC2)n1)C(=O)Nc1ccccc1C(=O)O [9-C16, 2-[2-cyano-3-(2-cyclopropyl-1,3-thiazol-4-yl)prop-2-enamido]benzoic acid] | 92.9
Cc1cccc(CC(=O)CCl)c1 [10-I19, 1-chloro-3-(3-methylphenyl)propan-2-one] | 68.3
Cc1cccc(N2C(=O)C=CC2=O)c1C [10-H05, 1-(2,3-dimethylphenyl)-2,5-dihydro-1H-pyrrole-2,5-dione] | 94.3
CCOc1ccccc1NC(=O)C(C#N)=Cc1c(F)cccc1F [8-G21, 2-cyano-3-(2,6-difluorophenyl)-N-(2-ethoxyphenyl)prop-2-enamide] | 78.1
CC(Cl)C(=O)NC1CCCCCC1 (stereo not shown) [5-O21, 2-chloro-N-cycloheptylpropanamide] | 105
CC1CCCCC1NC(=O)C(C#N)=Cc1ccc(N2CCOCC2)cc1 (stereo not shown) [8-I06, 2-cyano-N-(2-methylcyclohexyl)-3-[4-(morpholin-4-yl)phenyl]prop-2-enamide] | 52.8
C=CC(=O)N1CCC(C(=O)N[C@H]2CCOc3c(F)cccc32)CC1 [3-F12, N-[(4S)-8-fluoro-3,4-dihydro-2H-1-benzopyran-4-yl]-1-(prop-2-enoyl)piperidine-4-carboxamide] | 64.9
Cc1ccc(Cc2cnc(NC(=O)CCl)s2)cc1 [5-K03, 2-chloro-N-{5-[(4-methylphenyl)methyl]-1,3-thiazol-2-yl}acetamide] | -0.392
COc1cc(C(C)NC(=O)CCl)sn1 (stereo not shown) [7-H22, 2-chloro-N-[1-(3-methoxy-1,2-thiazol-5-yl)ethyl]acetamide] | 0.822
C=CC(=O)NCCC(=O)N1CCCC1c1cc(C)on1 (stereo not shown) [2-C12, N-{3-[2-(5-methyl-1,2-oxazol-3-yl)pyrrolidin-1-yl]-3-oxopropyl}prop-2-enamide] | 81.3
CC(NC(=O)CCl)c1nnc(-c2cccc(F)c2)s1 (stereo not shown) [5-F13, 2-chloro-N-{1-[5-(3-fluorophenyl)-1,3,4-thiadiazol-2-yl]ethyl}acetamide] | 0.963
C=CC(=O)Nc1ccccc1CCC(N)=O [1-A18, N-[2-(2-carbamoylethyl)phenyl]prop-2-enamide] | 125
C=CC(=O)N(C)CC(=O)N1CCN(c2ccccc2[N+](=O)[O-])CC1 [2-L04, N-methyl-N-{2-[4-(2-nitrophenyl)piperazin-1-yl]-2-oxoethyl}prop-2-enamide] | 83.6
C=CC(=O)NCCn1cnc2ccsc2c1=O [2-N15, N-(2-{4-oxo-3H,4H-thieno[3,2-d]pyrimidin-3-yl}ethyl)prop-2-enamide] | 66
CC(C)C(NC(=O)CCl)c1ccc2c(c1)OCCCO2 (stereo not shown) [4-N14, 2-chloro-N-[1-(3,4-dihydro-2H-1,5-benzodioxepin-7-yl)-2-methylpropyl]acetamide] | 28.5
COc1cc([N+](=O)[O-])ccc1N1C(=O)C=CC1=O [10-H13, 1-(2-methoxy-4-nitrophenyl)-2,5-dihydro-1H-pyrrole-2,5-dione] | 97.6
C=CC(=O)N(CC)Cc1cccc2c1OCO2 [3-I05, N-[(1,3-dioxaindan-4-yl)methyl]-N-ethylprop-2-enamide] | 47.8
CCOC(=O)c1c2c(nn1C)CCN(C(=O)C(C)Cl)C2 (stereo not shown) [7-I07, ethyl 5-(2-chloropropanoyl)-2-methyl-2H,4H,5H,6H,7H-pyrazolo[4,3-c]pyridine-3-carboxylate] | 92.6
C=CC(=O)Nc1cc(NC(=O)[C@H]2C[C@@H](C(C)=O)C2(C)C)ccc1F [2-H22, (1S,3R)-3-acetyl-N-[4-fluoro-3-(prop-2-enamido)phenyl]-2,2-dimethylcyclobutane-1-carboxamide] | 97.4
